The source of these data is patent US6969731B1, “Protease inhibitors that overcome drug resistance” (The University of Illinois, Board of Trustees, priority 1999, dated 2005).

Where “and” joins values, the source holds several entries; their conditions need not be identical. Identical values can stand only once.

Holding throughout (type): biochemical
One test has as its target T1, wild type HIV-1 protease (Human immunodeficiency virus type 1 group M subtype B, UniProt P04585).
T1 construct: The active HIVPr is a homodimer of 99-residue monomers; made in house; host or cells: E. coli
As to the kind of experiment: Ki determination, wild-type HIV-1 protease. The conditions noted are these: W.T. HIV-1 protease; with standard error. An excerpt:
(§1) The wild-type HIV-1 Pr was produced as recombinant enzyme in E. coli as described by Ido et al. ( 1991) J. Biol. Chem. 266:24359-24366.

Test [1] deals with T2, HIV-1 protease resistant mutant V82A (Human immunodeficiency virus type 1 group M subtype B, UniProt P04585, V570A).
T2 construct: The active HIVPr is a homodimer of 99-residue monomers; made in house
As to conditions: V82A mutant; with standard error.

Test [2] concerns HIV-1 protease resistant mutant V82A. As to conditions: Ki,mut V82A / Ki wild-type.
For test [3], the target named is T3, HIV-1 protease resistant mutant I84V (Human immunodeficiency virus type 1 group M subtype B, UniProt P04585, I572V).
T3 construct: The active HIVPr is a homodimer of 99-residue monomers; made in house
As to conditions: I84V mutant; with standard error.

Test [4] deals with HIV-1 protease resistant mutant I84V. The conditions noted are these: Ki,mut I84V / Ki wild-type.
Test [5] concerns the target T4, HIV-1 protease resistant mutant I15V (Human immunodeficiency virus type 1 group M subtype B, UniProt P04585, I503V).
T4 construct: The active HIVPr is a homodimer of 99-residue monomers; made in house
The conditions noted are these: I15V mutant; with standard error.

In test [6] the test system is HIV-1 protease resistant mutant I15V. As to conditions: Ki,mut I15V / Ki wild-type.
For test [7], the target named is T5, HIV-1 protease resistant mutant K20R (Human immunodeficiency virus type 1 group M subtype B, UniProt P04585, K508R).
T5 construct: The active HIVPr is a homodimer of 99-residue monomers; made in house
As to conditions: K20R mutant; with standard error.

Test [8] deals with HIV-1 protease resistant mutant K20R. The conditions noted are these: Ki,mut K20R / Ki wild-type.
For test [9], the target named is T6, HIV-1 protease resistant mutant M46I (Human immunodeficiency virus type 1 group M subtype B, UniProt P04585, M534I).
T6 construct: The active HIVPr is a homodimer of 99-residue monomers; made in house
As to conditions: M46I mutant; with standard error.

Test [10] deals with HIV-1 protease resistant mutant M46I. As to conditions: Ki,mut M46I / Ki wild-type.
The target of test [11] is T7, HIV-1 protease resistant mutant L10I (Human immunodeficiency virus type 1 group M subtype B, UniProt P04585, L498I).
T7 construct: The active HIVPr is a homodimer of 99-residue monomers; made in house
As to conditions: L10I mutant; with standard error.

For test [12], the system named is HIV-1 protease resistant mutant L10I. As to conditions: Ki,mut L10I / Ki wild-type.
In test [13] the target is T8, HIV-1 protease resistant mutant G48V (Human immunodeficiency virus type 1 group M subtype B, UniProt P04585, G536V).
T8 construct: The active HIVPr is a homodimer of 99-residue monomers; made in house
As to conditions: G48V mutant; with standard error.

Test [14] relates to HIV-1 protease resistant mutant G48V. The conditions noted are these: Ki,mut G48V / Ki wild-type.
In test [15] the target is T9, HIV-1 protease resistant mutant L90M (Human immunodeficiency virus type 1 group M subtype B, UniProt P04585, L578M).
T9 construct: The active HIVPr is a homodimer of 99-residue monomers; made in house
As to conditions: L90M mutant; with standard error.

The subject of test [16] is HIV-1 protease resistant mutant L90M. As to conditions: Ki,mut L90M / Ki wild-type.
Test [17] concerns the target T10, HIV-1 protease resistant mutant I64V (Human immunodeficiency virus type 1 group M subtype B, UniProt P04585, I552V).
T10 construct: The active HIVPr is a homodimer of 99-residue monomers; made in house
The conditions noted are these: I64V mutant; with standard error.

In test [18] the test system is HIV-1 protease resistant mutant I64V. The conditions noted are these: Ki,mut I64V / Ki wild-type.
The target of test [19] is T11, HIV-1 protease resistant mutant I93L (Human immunodeficiency virus type 1 group M subtype B, UniProt P04585, I581L).
T11 construct: The active HIVPr is a homodimer of 99-residue monomers; made in house
As to the kind of experiment: Ki determination, HIV-1 protease mutant I93L.
Text: as §1

Broadly, the Ki is the dissociation constant of the complex between target and ligand, obtained from inhibition or displacement. A higher Ki goes with weaker binding. In the case of `CC(C)CN(CC(O)C(Cc1ccccc1)NC(=O)C(Cc1ccccc1)CC(O)C(Cc1ccccc1)NC(=O)OC1CCCO1)S(=O)(=O)c1cccc(O)c1` [UIC-98-056, (1′S,2R,2′R,3S,5′S)-3-[N-[2′-Benzyl-5′-[N-(2-tetrahydrofuranyloxycarbonyl]amino-4′-hydroxy-6′-phenyl-1′-oxo]hexyl]amino-2-hydroxy-1-[N-isobutylamino-N′[3-hydroxybenzene)sulfonamido]]-4-[phenylbutane], the Ki turned out to be 6.2 ± 0.8 nM on wild type HIV-1 protease; 6.23 ± 1.2 nM in test [1]; 55.3 ± 0.46 nM in [3]; 1.22 ± 0.14 nM in [5]; 2.9 ± 0.74 nM in test [7]; 3.16 ± 0.81 nM in [9]. The Ki in test [11] was 1.03 ± 0.25 nM; in test [13], 8.7 ± 1.4 nM; in test [15], 2.1 ± 0.5 nM; in [17] it was 6.24 ± 1.52 nM; in test [19] (I93L mutant, with standard error) it was 3.05 ± 0.64 nM. Moreover, the “fold of Ki increase from that of the wild-type” value is 1.0 fold in test [2]; 9 fold and 8.9 fold in test [4]; 0.2 fold in [6]; 0.5 fold in test [8]; 0.5 fold in test [10]; 0.2 fold in test [12]. For the same compound, the “fold of Ki increase from that of the wild-type” value in [14] amounted to 1.4 fold; in [16] it was 0.3 fold; in test [18], 1.0 fold; in test [19] (Ki,mut I93L / Ki wild-type) it was 0.5 fold.
